How the values were obtained:
Format in all cases: functional
Schistosoma japonicum [1] = assay: Antischistosomal activity against adult Schistosoma japonicum assessed as worm survival at 50 uM after 48 hrs relative to control
Schistosoma japonicum [2] = assay: Antischistosomal activity against adult Schistosoma japonicum assessed as worm survival at 25 uM after 48 hrs relative to control
Schistosoma japonicum [3] = assay: Antischistosomal activity against adult Schistosoma japonicum assessed as worm survival at 20 uM after 48 hrs relative to control
Schistosoma japonicum [4] = assay: Antischistosomal activity against adult Schistosoma japonicum assessed as worm survival at 15 uM after 48 hrs relative to control
Schistosoma japonicum [5] = assay: Antischistosomal activity against adult Schistosoma japonicum assessed as worm survival at 50 uM after 72 hrs relative to control
Schistosoma japonicum [6] = assay: Antischistosomal activity against adult Schistosoma japonicum assessed as worm survival at 25 uM after 72 hrs relative to control
Schistosoma japonicum [7] = assay: Antischistosomal activity against adult Schistosoma japonicum assessed as worm survival at 20 uM after 72 hrs relative to control
Schistosoma japonicum [8] = assay: Antischistosomal activity against adult Schistosoma japonicum assessed as worm survival at 15 uM after 72 hrs relative to control
Schistosoma japonicum [9] = assay: Antischistosomal activity against juvenile Schistosoma japonicum assessed as worm survival at 50 uM after 24 hrs relative to control
Schistosoma japonicum [10] = assay: Antischistosomal activity against juvenile Schistosoma japonicum assessed as worm survival at 25 uM after 24 hrs relative to control
Schistosoma japonicum [11] = assay: Antischistosomal activity against juvenile Schistosoma japonicum assessed as worm survival at 50 uM after 48 hrs relative to control
Schistosoma japonicum [12] = assay: Antischistosomal activity against juvenile Schistosoma japonicum assessed as worm survival at 25 uM after 48 hrs relative to control
Schistosoma japonicum [13] = assay: Antischistosomal activity against juvenile Schistosoma japonicum assessed as worm survival at 50 uM after 72 hrs relative to control
Schistosoma japonicum [14] = assay: Antischistosomal activity against juvenile Schistosoma japonicum assessed as worm survival at 25 uM after 72 hrs relative to control
Schistosoma japonicum [15] = assay: Antischistosomal activity against adult Schistosoma japonicum infected in mouse assessed as total worm reduction at 200 mg/kg, po administered 21 days after infection relative to control; design: scale not given: the % may be the effect or the level left
Schistosoma japonicum [16] = assay: Antischistosomal activity against juvenile Schistosoma japonicum infected in mouse assessed as total worm reduction at 200 mg/kg, po administered 14 days after infection relative to control; design: scale not given: the % may be the effect or the level left
Schistosoma japonicum [17] = assay: Antischistosomal activity against adult Schistosoma japonicum assessed as worm survival at 50 uM after 24 hrs relative to control
Schistosoma japonicum [18] = assay: Antischistosomal activity against adult Schistosoma japonicum assessed as worm survival at 25 uM after 24 hrs relative to control
Schistosoma japonicum [19] = assay: Antischistosomal activity against adult Schistosoma japonicum assessed as worm survival at 20 uM after 24 hrs relative to control
Schistosoma japonicum [20] = assay: Antischistosomal activity against adult Schistosoma japonicum assessed as worm survival at 15 uM after 24 hrs relative to control
Schistosoma japonicum [21] = assay: Antischistosomal activity against adult Schistosoma japonicum assessed as worm survival at 80 uM after 48 hrs relative to control
Schistosoma japonicum [22] = assay: Antischistosomal activity against adult Schistosoma japonicum assessed as worm survival at 100 uM after 48 hrs relative to control
Schistosoma japonicum [23] = assay: Antischistosomal activity against adult Schistosoma japonicum assessed as worm survival at 80 uM after 72 hrs relative to control
Schistosoma japonicum [24] = assay: Antischistosomal activity against adult Schistosoma japonicum assessed as worm survival at 100 uM after 72 hrs relative to control
Schistosoma japonicum [25] = assay: Antischistosomal activity against adult Schistosoma japonicum assessed as worm survival at 80 uM after 24 hrs relative to control
Schistosoma japonicum [26] = assay: Antischistosomal activity against adult Schistosoma japonicum assessed as worm survival at 100 uM after 24 hrs relative to control
Schistosoma japonicum [27] = assay: Antischistosomal activity against adult Schistosoma japonicum assessed as worm survival at 60 uM after 48 hrs relative to control
Schistosoma japonicum [28] = assay: Antischistosomal activity against adult Schistosoma japonicum assessed as worm survival at 70 uM after 48 hrs relative to control
Schistosoma japonicum [29] = assay: Antischistosomal activity against adult Schistosoma japonicum assessed as worm survival at 60 uM after 72 hrs relative to control
Schistosoma japonicum [30] = assay: Antischistosomal activity against adult Schistosoma japonicum assessed as worm survival at 70 uM after 72 hrs relative to control
Schistosoma japonicum [31] = assay: Antischistosomal activity against adult Schistosoma japonicum assessed as worm survival at 60 uM after 24 hrs relative to control
Schistosoma japonicum [32] = assay: Antischistosomal activity against adult Schistosoma japonicum assessed as worm survival at 70 uM after 24 hrs relative to control
Schistosoma japonicum [33] = assay: Antischistosomal activity against juvenile Schistosoma japonicum assessed as worm survival at 100 uM after 24 hrs relative to control
Schistosoma japonicum [34] = assay: Antischistosomal activity against juvenile Schistosoma japonicum assessed as worm survival at 100 uM after 48 hrs relative to control
Schistosoma japonicum [35] = assay: Antischistosomal activity against juvenile Schistosoma japonicum assessed as worm survival at 100 uM after 72 hrs relative to control

O=C(Nc1ccc2c(c1)C1CN(C(=O)C3CCCCC3)CC(=O)N1CC2)C1CCC2(CC1)OOC1(CCCCC1)OO2 (stereo unspecified)
survival at 50 µM (Schistosoma japonicum [1]): 0% | survival at 25 µM (Schistosoma japonicum [2]): 0% | survival at 20 µM (Schistosoma japonicum [3]): 100% | survival at 15 µM (Schistosoma japonicum [4]): 100% | survival at 50 µM (Schistosoma japonicum [5]): 0% | survival at 25 µM (Schistosoma japonicum [6]): 40% | survival at 20 µM (Schistosoma japonicum [7]): 100% | survival at 15 µM (Schistosoma japonicum [8]): 100% | survival at 50 µM (Schistosoma japonicum [9]): 33.3% | survival at 25 µM (Schistosoma japonicum [10]): 37.5% | survival at 50 µM (Schistosoma japonicum [11]): 0% | survival at 25 µM (Schistosoma japonicum [12]): 33.3% | survival at 50 µM (Schistosoma japonicum [13]): 0% | survival at 25 µM (Schistosoma japonicum [14]): 12.5% | Activity (Schistosoma japonicum [15]): 38.7% | Activity (Schistosoma japonicum [16]): 25.1% | survival at 50 µM (Schistosoma japonicum [17]): 0% | survival at 25 µM (Schistosoma japonicum [18]): 60% | survival at 20 µM (Schistosoma japonicum [19]): 100% | survival at 15 µM (Schistosoma japonicum [20]): 100%

O=C(Oc1ccc2c(c1)C1CN(C(=O)C3CCCCC3)CC(=O)N1CC2)C1CCC2(CC1)OOC1(CCCCC1)OO2 (stereo unspecified)
survival at 50 µM (Schistosoma japonicum [1]): 80% | survival at 80 µM (Schistosoma japonicum [21]): 80% | survival at 100 µM (Schistosoma japonicum [22]): 20% | survival at 50 µM (Schistosoma japonicum [5]): 80% | survival at 80 µM (Schistosoma japonicum [23]): 40% | survival at 100 µM (Schistosoma japonicum [24]): 0% | survival at 50 µM (Schistosoma japonicum [9]): 0% | survival at 50 µM (Schistosoma japonicum [11]): 14.3% | survival at 50 µM (Schistosoma japonicum [13]): 14.3% | survival at 50 µM (Schistosoma japonicum [17]): 40% | survival at 80 µM (Schistosoma japonicum [25]): 80% | survival at 100 µM (Schistosoma japonicum [26]): 80%

O=C(Nc1ccc2c(c1)C1CN(C(=O)C3CCCCC3)CC(=O)N1CC2)C1CCC2(CC1)OOC1(O2)C2CC3CC(C2)CC1C3 (stereo unspecified)
survival at 50 µM (Schistosoma japonicum [1]): 100% | survival at 50 µM (Schistosoma japonicum [5]): 100% | survival at 50 µM (Schistosoma japonicum [17]): 100%

O=C(Oc1ccc2c(c1)C1CN(C(=O)C3CCCCC3)CC(=O)N1CC2)C1CCC2(CC1)OOC1(O2)C2CC3CC(C2)CC1C3 (stereo unspecified)
survival at 50 µM (Schistosoma japonicum [1]): 40% | survival at 80 µM (Schistosoma japonicum [21]): 0% | survival at 60 µM (Schistosoma japonicum [27]): 40% | survival at 70 µM (Schistosoma japonicum [28]): 40% | survival at 50 µM (Schistosoma japonicum [5]): 40% | survival at 80 µM (Schistosoma japonicum [23]): 0% | survival at 60 µM (Schistosoma japonicum [29]): 40% | survival at 70 µM (Schistosoma japonicum [30]): 20% | survival at 50 µM (Schistosoma japonicum [17]): 40% | survival at 80 µM (Schistosoma japonicum [25]): 0% | survival at 60 µM (Schistosoma japonicum [31]): 40% | survival at 70 µM (Schistosoma japonicum [32]): 20%

O=C(C1CCCCC1)N1CC(=O)N2CCc3ccccc3C2C1 (stereo unspecified) [PRAZIQUANTEL]
survival at 50 µM (Schistosoma japonicum [1]): 44.4% | survival at 80 µM (Schistosoma japonicum [21]): 19.1% | survival at 100 µM (Schistosoma japonicum [22]): 4.4% | survival at 50 µM (Schistosoma japonicum [5]): 36.3% | survival at 80 µM (Schistosoma japonicum [23]): 10% | survival at 100 µM (Schistosoma japonicum [24]): 1.4% | survival at 100 µM (Schistosoma japonicum [33]): 100% | survival at 100 µM (Schistosoma japonicum [34]): 100% | survival at 100 µM (Schistosoma japonicum [35]): 100% | Activity (Schistosoma japonicum [15]): 66.7% | Activity (Schistosoma japonicum [16]): 19.8% | survival at 50 µM (Schistosoma japonicum [17]): 62.9% | survival at 80 µM (Schistosoma japonicum [25]): 28.8% | survival at 100 µM (Schistosoma japonicum [26]): 10%
